From ChEMBL document CHEMBL5360672, “Identification of Novel Dual-Target Estrogen Receptor α Degraders with Tubulin Inhibitory Activity for the Treatment of Endocrine-Resistant Breast Cancer” (J Med Chem, 2023)
Active and inactive are the calls of the source. The calls are words filed in the database; no cut-off is given here.

Legend:
MCF7 = assay: Antitumor activity against human MCF7 cells xenografted in Balb/c nude mouse assessed as tumor growth inhibition at 2 mg/kg, ip administered every other day for 20 days relative to control; assay type: functional; conditions: MCF7, 480 h, time 20 day, read-out: TGI
Estrogen receptor = target: T1, Estrogen receptor (Homo sapiens, UniProt P03372); assay: Antagonist activity at ERalpha (unknown origin) expressed in HEK293T cells co-expressing ERbeta and ERE-luciferase reporter assessed as reduction in relative light unit incubated for 24 hrs by dual-luciferase reporter assay; assay type: cell-based
T1 sequence (P03372 whole entry): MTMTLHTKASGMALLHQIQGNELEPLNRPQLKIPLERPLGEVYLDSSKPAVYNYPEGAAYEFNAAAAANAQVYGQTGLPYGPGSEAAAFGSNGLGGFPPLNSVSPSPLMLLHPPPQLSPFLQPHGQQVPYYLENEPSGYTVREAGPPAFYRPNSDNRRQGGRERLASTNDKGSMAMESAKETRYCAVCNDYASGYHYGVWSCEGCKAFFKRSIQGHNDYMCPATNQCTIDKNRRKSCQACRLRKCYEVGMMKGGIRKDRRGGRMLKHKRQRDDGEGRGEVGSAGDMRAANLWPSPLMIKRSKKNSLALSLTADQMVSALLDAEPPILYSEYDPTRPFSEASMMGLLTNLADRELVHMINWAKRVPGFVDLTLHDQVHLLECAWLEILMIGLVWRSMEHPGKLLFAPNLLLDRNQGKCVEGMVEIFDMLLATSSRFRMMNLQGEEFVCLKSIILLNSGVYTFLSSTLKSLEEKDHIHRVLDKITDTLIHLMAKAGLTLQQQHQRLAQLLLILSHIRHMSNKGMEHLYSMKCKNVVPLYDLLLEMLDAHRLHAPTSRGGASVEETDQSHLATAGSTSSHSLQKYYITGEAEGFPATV

Mus musculus [1] = assay: In vivo induction of ERalpha degradation in BALB/c nude mouse xenografted with human tamoxifen-resistant LCC2 cells assessed as decrease in ERalpha expression in tumor at 2 mg/kg, ip administered every other day for 20 days by Western blot analysis; assay type: functional, organism-based; conditions: time 20.0 day
[2] = target: T2, Estrogen receptor (Homo sapiens) (UniProt P03372); assay: Binding affinity to human ERalpha assessed as relative binding affinity incubated under vibration for 1 min followed by 2 hrs incubation under dark condition by fluorescence polarization assay relative to estradiol; conditions: time 121.0 min
T2 sequence (whole entry): T1 sequence (P03372 whole entry)

[3] = target: T2, Estrogen receptor (Homo sapiens); assay: Induction of ERalpha degradation in human MCF7 cells at 1 uM incubated for 6 to 24 hrs by Western blot analysis; assay type: cell-based; conditions: time 6-24 hrs
[4] = target: T2, Estrogen receptor (Homo sapiens); assay: Induction of ERalpha degradation in human Tamoxifen-resistant LCC2 cells at 0.5 to 5 uM incubated for 6 to 24 hrs by Western blot analysis; assay type: cell-based; conditions: Tamoxifen-resistant LCC2 cell, dose 0.5-5 µM, time 6-24 hrs
T47D = assay: Antiproliferative activity against ERalpha positive human T47D cells assessed as inhibition of cell proliferation incubated for 72 hrs by CCK8 assay; assay type: functional, cell-based
Mus musculus [5] = assay: In vivo induction of ERalpha degradation in BALB/c nude mouse xenografted with human MCF7 cells assessed as decrease in ERalpha expression in tumor at 2 to 4 mg/kg, ip administered every other day for 20 days by Western blot analysis; assay type: functional, organism-based; conditions: dose 2-4 mg/kg, time 20.0 day
MDA-MB-231 = assay: Antiproliferative activity against ERalpha negative human MDA-MB-231 cells assessed as inhibition of cell proliferation incubated for 72 hrs by CCK8 assay; assay type: functional, cell-based; conditions: MDA-MB-231, 72 h
Tubulin (Homo sapiens) = Tubulin (Homo sapiens) (UniProt P68371+Q9H4B7+P0DPH7+P68366+Q13509+Q71U36+P04350+Q3ZCM7+P07437+P68363+Q9BQE3+Q6PEY2+Q13885+Q9BVA1+Q9BUF5); assay: Disruption of microtubule network in human MCF7 cells assessed as ruptured microtubule network at 2 uM incubated for 48 hrs by DAPI staining based confocal laser scanning microscopic analysis; assay type: cell-based
Homo sapiens = species: Homo sapiens; assay: Selectivity ratio of relative binding affinity for human ERalpha to relative binding affinity to human ERbeta

N#C[Se]CCCCCC(=O)Nc1ccc(C2=C(c3ccc(O)cc3)C3CC(S(=O)(=O)N(CC(F)(F)F)c4ccccc4F)C2O3)cc1 (stereo unspecified)
inhibition in vivo at 2 mg/kg (MCF7): 74.6% | IC50 (Estrogen receptor): 0.056 µM | Activity (Mus musculus [1]): Active | RBA [2]: 8.57% | Activity [3]: Active | Activity [4]: Active | IC50 (T47D): 2.56 µM | Activity (Mus musculus [5]): Active | IC50 (MDA-MB-231): 3.75 µM | Activity (Tubulin (Homo sapiens)): Active | Selectivity ratio (Homo sapiens): 85.7
